From patent US20240018123A1, “COMPOUND FOR INHIBITING OR DISINTEGRATING ANDROGEN RECEPTOR, AND PHARMACEUTICAL USE THEREOF” (KOREA RESEARCH INSTITUTE OF CHEMICAL TECHNOLOGY, priority 2020, published 2024)
Like-named read-outs stand apart in the source and are kept apart here.

How the values were obtained:
VCaP cells = assay: Cytotoxicity assessment (Cell-titer-glo cell viability), VCaP
Experimental: (§1) In order to evaluate the androgen receptor (AR) cytotoxicity of the compounds according to the present invention, the following experiment was conducted. Specifically, 1.5×10^3 (LNCaP) or 4×10^3 (VCaP, 22RV1), respectively, of LNCaP, VCaP, and 22RV1 cells were injected into each well of a 96-well plate. The next day, each well was treated with the compound at a final concentration of 3 nM, 10 nM, 30 nM, 100 nM, 300 nM, 1 μM, 3 μM, and 10 μM. […] After 6 days of treatment, Cell-titer-glo (promega) was treated and reacted for 10 minutes, and cell viability was measured with a multimode plate reader (PerkinElmer, Inc.), and the change was quantified compared to when DMSO was treated.

Androgen receptor (AR) = target: T1, Androgen receptor (AR) (Homo sapiens, UniProt P10275, T878A); assay: Assessment of AR proteolytic activity (Western blotting of LNCap cell lysates); assay type: cell-based; settings: 24 hours of treatment, Western blotting quantified with Image J
T1 construct: 5.5×10^5 LNCap cells were injected into each well of a 6-well plate; endogenous in cells; host or cells: LNCaP
T1 sequence (P10275 1-920 T878A): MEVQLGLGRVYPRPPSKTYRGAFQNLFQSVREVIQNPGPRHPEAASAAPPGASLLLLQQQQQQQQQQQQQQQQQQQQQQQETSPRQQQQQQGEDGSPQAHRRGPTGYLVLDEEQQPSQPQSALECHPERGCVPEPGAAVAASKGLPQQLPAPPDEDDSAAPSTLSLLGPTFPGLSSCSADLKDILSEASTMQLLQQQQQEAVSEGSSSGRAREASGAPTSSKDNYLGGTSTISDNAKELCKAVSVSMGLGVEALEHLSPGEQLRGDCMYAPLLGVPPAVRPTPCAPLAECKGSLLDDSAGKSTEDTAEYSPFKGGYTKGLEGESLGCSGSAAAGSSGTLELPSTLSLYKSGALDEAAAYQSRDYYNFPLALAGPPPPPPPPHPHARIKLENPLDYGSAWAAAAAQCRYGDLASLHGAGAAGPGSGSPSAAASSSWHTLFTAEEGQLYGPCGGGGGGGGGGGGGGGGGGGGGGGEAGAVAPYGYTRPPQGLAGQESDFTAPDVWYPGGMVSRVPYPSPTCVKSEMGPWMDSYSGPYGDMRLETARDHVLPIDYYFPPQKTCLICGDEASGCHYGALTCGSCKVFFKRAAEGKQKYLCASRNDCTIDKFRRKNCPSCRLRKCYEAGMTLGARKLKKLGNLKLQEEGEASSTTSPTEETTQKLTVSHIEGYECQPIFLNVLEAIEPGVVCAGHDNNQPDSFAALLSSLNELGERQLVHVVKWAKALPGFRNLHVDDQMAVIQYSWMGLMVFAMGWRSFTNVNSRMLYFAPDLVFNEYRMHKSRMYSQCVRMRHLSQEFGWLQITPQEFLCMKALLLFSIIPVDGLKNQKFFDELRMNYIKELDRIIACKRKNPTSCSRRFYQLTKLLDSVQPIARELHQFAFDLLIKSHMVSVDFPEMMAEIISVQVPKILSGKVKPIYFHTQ
Procedure, shortened: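 LNCap cells seeded at 5.5×10^5 per well and treated with compound for 24 hours. Lysates prepared in RIPA buffer (pH 7.5, with protease inhibitors). AR protein levels assessed by Western blot with densitometric quantification.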

LNCaP cells = assay: Cytotoxicity assessment (Cell-titer-glo cell viability), LNCaP
Experimental: as §1

[1] = read-out: VCaP (CC50), VCaP cells, 6 days of treatment, Cell-titer-glo, vs DMSO
[2] = read-out: LNCAP (CC50), LNCaP cells, 6 days of treatment, Cell-titer-glo, vs DMSO

remaining activity at 1 µM (Androgen receptor (AR); read-out: Degradation (1 μM treated in LNCaP, % AR remaining)) | Degradation (1 μM treated in LNCaP, % AR remaining) (Androgen receptor (AR)) | Structure (SMILES) | CC50 (VCaP cells; Homo sapiens, VCaP, 144 h, read-out: VCaP (CC50, μM)) | CC50 (LNCaP cells; Homo sapiens, LNCaP, 144 h, read-out: LNCAP (CC50, μM)) | CC50 (VCaP cells; [1]) | CC50 (LNCaP cells; [2])
8.1% |  | CC1(C)[C@H](NC(=O)c2ccc(N3CCN(CC4CCN(c5ccc6nnn(C7CCC(=O)NC7=O)c(=O)c6c5)CC4)CC3)cc2)C(C)(C)[C@H]1Oc1ccc(C#N)c(Cl)c1 (some centres unmarked) [Example 8, N-((1r,3r)-3-(3-chloro-4-cyanophenoxy)-2,2,4,4-tetramethylcyclobutyl)-4-(4-((1-(3-(2,6-dioxopiperidin-3-yl)-4-oxo-3,4-dihydrobenzo[d][1,2,3]triazin-6-yl)piperidin-4-yl)methyl)piperazin-1-yl)benzamide] | 0.685 µM | 0.163 µM |  | 
 | 23% | CC1(C)[C@H](NC(=O)c2ccc(N3CCN(C4CC5(CCN(C(=O)CNc6ccc7nnn(C8CCC(=O)NC8=O)c(=O)c7c6)CC5)C4)CC3)cc2)C(C)(C)[C@H]1Oc1ccc(C#N)c(Cl)c1 (some centres unmarked) [Example 19, N-((1r,3r)-3-(3-chloro-4-cyanophenoxy)-2,2,4,4-tetramethylcyclobutyl)-4-(4-(7-((3-(2,6-dioxopiperidin-3-yl)-4-oxo-3,4-dihydrobenzo[d][1,2,3]triazin-6-yl)glycyl)-7-azaspiro[3.5]nonan-2-yl)piperazin-1-yl)benzamide] |  |  | 0.0763 µM | 0.208 µM
 | 74% | CC1(C)[C@H](NC(=O)c2ccc(N3CCN(C4CC5(CCN(c6cccc7nnn(C8CCC(=O)NC8=O)c(=O)c67)CC5)C4)CC3)cc2)C(C)(C)[C@H]1Oc1ccc(C#N)c(Cl)c1 (some centres unmarked) [Example 22, N-((1r,3r)-3-(3-chloro-4-cyanophenoxy)-2,2,4,4-tetramethylcyclobutyl)-4-(4-(7-(3-(2,6-dioxopiperidin-3-yl)-4-oxo-3,4-dihydrobenzo[d][1,2,3]triazin-5-yl)-7-azaspiro[3.5]nonan-2-yl)piperazin-1-yl)benzamide] |  |  | 0.135 µM | 13.4 µM
 | 5% | CC1(C)[C@H](NC(=O)c2ccc(N3CCN(C4CC5(CCN(c6ccc7nnn(C8CCC(=O)NC8=O)c(=O)c7c6)CC5)C4)CC3)cc2)C(C)(C)[C@H]1Oc1ccc(C#N)c(Cl)c1 (some centres unmarked) [Example 23, N-((1r,3r)-3-(3-chloro-4-cyanophenoxy)-2,2,4,4-tetramethylcyclobutyl)-4-(4-(7-(3-(2,6-dioxopiperidin-3-yl)-4-oxo-3,4-dihydrobenzo[d][1,2,3]triazin-6-yl)-7-azaspiro[3.5]nonan-2-yl)piperazin-1-yl)benzamide] |  |  | 0.191 µM | 0.302 µM
 |  | CC1(C)C(NC(=O)c2ccc(-n3cc(CC4CCN(c5ccc6nnn(C7CCC(=O)NC7=O)c(=O)c6c5)CC4)nn3)cc2)C(C)(C)C1Oc1ccc(C#N)c(Cl)c1 (centres unmarked) [Example 103, N-((1r,3r)-3-(3-chloro-4-cyanophenoxy)-2,2,4,4-tetramethylcyclobutyl)-4-(4-((1-(3-(2,6-dioxopiperidin-3-yl)-4-oxo-3,4-dihydrobenzo[d][1,2,3]triazin-6-yl)piperidin-4-yl)methyl)-1H-1,2,3-triazol-1-yl)benzamide] |  |  | 0.0123 µM | 0.144 µM
 |  | CC1(C)C(NC(=O)c2ccc(-n3cc(CC4CCN(C(=O)CNc5ccc6nnn(C7CCC(=O)NC7=O)c(=O)c6c5)CC4)nn3)cc2)C(C)(C)C1Oc1ccc(C#N)c(Cl)c1 (centres unmarked) [Example 106, N-((1r,3r)-3-(3-chloro-4-cyanophenoxy)-2,2,4,4-tetramethylcyclobutyl)-4-(4-((1-((3-(2,6-dioxopiperidin-3-yl)-4-oxo-3,4-dihydrobenzo[d][1,2,3]triazin-6-yl)glycyl)piperidin-4-yl)methyl)-1H-1,2,3-triazol-1-yl)benzamide] |  |  | 0.0113 µM | 0.0691 µM
 |  | CC1(C)C(NC(=O)c2ccc(-n3cc(C4CCN(C(=O)CNc5ccc6nnn(C7CCC(=O)NC7=O)c(=O)c6c5)CC4)nn3)cc2)C(C)(C)C1Oc1ccc(C#N)c(Cl)c1 (centres unmarked) [Example 107, N-((1r,3r)-3-(3-chloro-4-cyanophenoxy)-2,2,4,4-tetramethylcyclobutyl)-4-(4-(1-((3-(2,6-dioxopiperidin-3-yl)-4-oxo-3,4-dihydrobenzo[d][1,2,3]triazin-6-yl)glycyl)piperidin-4-yl)-1H-1,2,3-triazol-1-yl)benzamide] |  |  | 0.00359 µM | 0.0899 µM
 |  | CC1(C)C(NC(=O)c2ccc(CCN3CCN(CC4CCN(C(=O)CNc5ccc6nnn(C7CCC(=O)NC7=O)c(=O)c6c5)CC4)CC3)cc2)C(C)(C)C1Oc1ccc(C#N)c(Cl)c1 (centres unmarked) [Example 110, N-((1r,3r)-3-(3-chloro-4-cyanophenoxy)-2,2,4,4-tetramethylcyclobutyl)-4-(2-(4-((1-((3-(2,6-dioxopiperidin-3-yl)-4-oxo-3,4-dihydrobenzo[d][1,2,3]triazin-6-yl)glycyl)piperidin-4-yl)methyl)piperazin-1-yl)ethyl)benzamide] |  |  | 0.00365 µM | 0.456 µM
 |  | CC1(C)C(NC(=O)c2ccc(CCN3CCN(CC4CCN(c5ccc6nnn(C7CCC(=O)NC7=O)c(=O)c6c5)CC4)CC3)cc2)C(C)(C)C1Oc1ccc(C#N)c(Cl)c1 (centres unmarked) [Example 111, N-((1r,3r)-3-(3-chloro-4-cyanophenoxy)-2,2,4,4-tetramethylcyclobutyl)-4-(2-(4-((1-(3-(2,6-dioxopiperidin-3-yl)-4-oxo-3,4-dihydrobenzo[d][1,2,3]triazin-6-yl)piperidin-4-yl)methyl)piperazin-1-yl)ethyl)benzamide] |  |  | 0.00229 µM | 0.0372 µM
 |  | CC1(C)C(NC(=O)c2ccc(-c3cnn(C4CCN(CC5CCN(c6ccc7nnn(C8CCC(=O)NC8=O)c(=O)c7c6)CC5)CC4)c3)nc2)C(C)(C)C1Oc1ccc(C#N)c(Cl)c1 (centres unmarked) [Example 115, N-((1r,3r)-3-(3-chloro-4-cyanophenoxy)-2,2,4,4-tetramethylcyclobutyl)-6-(1-(1-((1-(3-(2,6-dioxopiperidin-3-yl)-4-oxo-3,4-dihydrobenzo[d][1,2,3]triazin-6-yl)piperidin-4-yl)methyl)piperidin-4-yl)-1H-pyrazol-4-yl)nicotinamide] |  |  | 0.038 µM | 0.182 µM
 |  | CC1(C)C(NC(=O)c2ccc(C#CCC3CCN(CC4CCN(C(=O)C5CN(c6ccc7nnn(C8CCC(=O)NC8=O)c(=O)c7c6)C5)CC4)CC3)cc2)C(C)(C)C1Oc1ccc(C#N)c(Cl)c1 (centres unmarked) [Example 117, N-((1r,3r)-3-(3-chloro-4-cyanophenoxy)-2,2,4,4-tetramethylcyclobutyl)-4-(3-(1-((1-(1-(3-(2,6-dioxopiperidin-3-yl)-4-oxo-3,4-dihydrobenzo[d][1,2,3]triazin-6-yl)azetidine-3-carbonyl)piperidin-4-yl)methyl)piperidin-4-yl)prop-1-yn-1-yl)benzamide] |  |  | 0.013 µM | 0.166 µM

Structure (SMILES) | remaining activity at 1 µM (Androgen receptor (AR); read-out: Degradation (1 μM treated in LNCaP, % AR remaining)) | Degradation (1 μM treated in LNCaP, % AR remaining) (Androgen receptor (AR)) | CC50 (VCaP cells; Homo sapiens, VCaP, 144 h, read-out: VCaP (CC50, μM)) | CC50 (LNCaP cells; Homo sapiens, LNCaP, 144 h, read-out: LNCAP (CC50, μM)) | CC50 (VCaP cells; [1]) | CC50 (LNCaP cells; [2])
CC1(C)[C@H](NC(=O)c2ccc(N3CCN(CC4CCN(C(=O)C5CCN(c6ccc7nnn(C8CCC(=O)NC8=O)c(=O)c7c6)CC5)CC4)CC3)cc2)C(C)(C)[C@H]1Oc1ccc(C#N)c(Cl)c1 (some centres unmarked) [Example 10, N-((1r,3r)-3-(3-chloro-4-cyanophenoxy)-2,2,4,4-tetramethylcyclobutyl)-4-(4-((1-(1-(3-(2,6-dioxopiperidin-3-yl)-4-oxo-3,4-dihydrobenzo[d][1,2,3]triazin-6-yl)piperidine-4-carbonyl)piperidin-4-yl)methyl)piperazin-1-yl)benzamide] |  | 12.5% |  |  | 0.257 µM | 0.19 µM
CC1(C)[C@H](NC(=O)c2ccc(N3CCN(C4CC5(CCN(C(=O)C6CCN(c7ccc8nnn(C9CCC(=O)NC9=O)c(=O)c8c7)CC6)CC5)C4)CC3)cc2)C(C)(C)[C@H]1Oc1ccc(C#N)c(Cl)c1 (some centres unmarked) [Example 20, N-((1r,3r)-3-(3-chloro-4-cyanophenoxy)-2,2,4,4-tetramethylcyclobutyl)-4-(4-(7-(1-(3-(2,6-dioxopiperidin-3-yl)-4-oxo-3,4-dihydrobenzo[d][1,2,3]triazin-6-yl)piperidine-4-carbonyl)-7-azaspiro[3.5]nonan-2-yl)piperazin-1-yl)benzamide] |  | 26% |  |  | 0.0542 µM | 0.178 µM
